Patent US7186534B1 (The Trustees of Columbia University in the City of New York, priority 1997, dated 2007)
Where two headings read alike, the source gives them in different places.

Legend:
[1] = target: T1, human 9-cis retinol dehydrogenase (9cRDH) (Homo sapiens, UniProt Q92781); experiment: Inhibition of recombinant human 9cRDH activity (9-cis-retinol oxidation, CHO cell homogenate, HPLC); assay type: biochemical; details: for inhibition of human 9cRDH activity by hydroxysteroids: 10 μM steroid, equimolar to substrate, forward (retinol oxidation) or reverse (retinaldehyde reduction) direction; for effect on 9cRDH activity expressed in CHO cells (first series): NaCl up to 1 M, β-mercaptoethanol, dithiothreitol 1 mM, Triton X-100, sodium cholate 1% (w/v)
T1 sequence (Q92781 1-318): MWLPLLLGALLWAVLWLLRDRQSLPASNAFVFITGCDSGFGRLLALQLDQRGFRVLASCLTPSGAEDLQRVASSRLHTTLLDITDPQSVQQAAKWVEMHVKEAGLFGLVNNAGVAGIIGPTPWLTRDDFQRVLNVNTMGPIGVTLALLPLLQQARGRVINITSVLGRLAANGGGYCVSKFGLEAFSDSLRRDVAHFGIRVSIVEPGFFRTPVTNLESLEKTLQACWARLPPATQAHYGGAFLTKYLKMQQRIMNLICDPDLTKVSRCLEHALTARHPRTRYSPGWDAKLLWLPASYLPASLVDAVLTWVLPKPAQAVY

mouse 9cRDH = target: T2, mouse 9cRDH (Mus musculus, UniProt O55240); experiment: Inhibition of recombinant mouse 9cRDH activity (9-cis-retinol oxidation, CHO cell homogenate, HPLC); assay type: biochemical; details: for inhibition of mouse 9cRDH activity by hydroxysteroids: 10 μM steroid, equimolar to substrate, forward (retinol oxidation) or reverse (retinaldehyde reduction) direction
T2 sequence (O55240 1-318): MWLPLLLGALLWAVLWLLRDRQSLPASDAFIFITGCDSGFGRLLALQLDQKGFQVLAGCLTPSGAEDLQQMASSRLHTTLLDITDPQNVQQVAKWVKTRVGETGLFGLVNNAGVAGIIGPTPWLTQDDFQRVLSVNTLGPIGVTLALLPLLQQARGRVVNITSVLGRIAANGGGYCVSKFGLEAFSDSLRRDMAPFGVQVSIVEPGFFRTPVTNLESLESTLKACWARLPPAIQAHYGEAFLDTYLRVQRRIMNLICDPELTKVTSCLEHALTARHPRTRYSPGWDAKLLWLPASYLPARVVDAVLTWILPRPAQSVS

[2] = […] 15 μM, carbenoxolone 0.5 mM, all others 1 mM
[3] = phenylarsine oxide 15 μM, carbenoxolone 0.5 mM, all others 1 mM

SMILES	inhibition of human 9cRDH activity by hydroxysteroids [1]	inhibition of mouse 9cRDH activity by hydroxysteroids (mouse 9cRDH)	also measured
C[C@]12C[C@H](O)[C@H]3[C@@H](CCC4=CC(=O)CC[C@@]43C)[C@@H]1CC[C@@H]2C(=O)CO [corticosterone]	none of these hydroxysteroids inhibited	none of these hydroxysteroids inhibited	–
C[C@]12CCC(=O)C=C1CC[C@@H]1[C@@H]2C(=O)C[C@@]2(C)[C@H]1CC[C@]2(O)C(=O)CO [cortisone]	none of these hydroxysteroids inhibited	none of these hydroxysteroids inhibited	–
CCN(CC)C(=S)SSC(=S)N(CC)CC [disulfuran]	–	–	influence of SCAD/alcohol dehydrogenase inhibiting reagents on recombinant human 9cRDH activity [1, 2]: none of these compounds influenced; influence of SCAD/alcohol dehydrogenase inhibiting reagents on recombinant mouse 9cRDH activity (mouse 9cRDH; [2]): none of these compounds influenced
CCO [ethanol]	–	–	inhibition of human 9cRDH activity (in words) ([1]; 10 μM 9-cis-retinol): not inhibited; effect on 9cRDH activity expressed in CHO cells (first series) [1]: not inhibited; inhibition of mouse 9cRDH activity (in words) (mouse 9cRDH; 10 μM 9-cis-retinol): not inhibited
C[C@]12CCC(=O)C=C1CC[C@@H]1[C@@H]2[C@@H](O)C[C@@]2(C)[C@H]1CC[C@]2(O)C(=O)CO [hydrocortisone]	none of these hydroxysteroids inhibited	none of these hydroxysteroids inhibited	–
c1cnc2c(c1)ccc1cccnc12 [o-phenanthroline, 1,10-phenanthroline]	–	–	effect on 9cRDH activity expressed in CHO cells (first series) [1]: not inhibited; influence of SCAD/alcohol dehydrogenase inhibiting reagents on recombinant human 9cRDH activity [1, 3]: none of these compounds influenced; influence of SCAD/alcohol dehydrogenase inhibiting reagents on recombinant mouse 9cRDH activity (mouse 9cRDH; [3]): none of these compounds influenced
CC(=O)[O-].CC(=O)[O-].[Zn+2] [zinc acetate]	–	–	influence of SCAD/alcohol dehydrogenase inhibiting reagents on recombinant human 9cRDH activity [1]: none of these compounds influenced; influence of SCAD/alcohol dehydrogenase inhibiting reagents on recombinant mouse 9cRDH activity (mouse 9cRDH): none of these compounds influenced

The next lines start with results.

inhibition of human 9cRDH activity by hydroxysteroids [1]	inhibition of mouse 9cRDH activity by hydroxysteroids (mouse 9cRDH)	SMILES	also measured
none of these hydroxysteroids inhibited	none of these hydroxysteroids inhibited	C[C@]12C=CC(=O)C=C1CC[C@@H]1[C@@H]2C(=O)C[C@@]2(C)[C@H]1CC[C@]2(O)C(=O)CO [prednisone]	–
none of these hydroxysteroids inhibited	none of these hydroxysteroids inhibited	CC(=O)[C@H]1CC[C@H]2[C@@H]3CCC4=CC(=O)CC[C@]4(C)[C@H]3CC[C@]12C [progesterone]	–
none of these hydroxysteroids inhibited	none of these hydroxysteroids inhibited	C[C@]12CC[C@@H]3c4ccc(O)cc4CC[C@H]3[C@@H]1CC[C@@H]2O [β-estradiol]	–
